Among the data in PubChem BioAssay (NCI) are GI50 and TGI values, retold here.

“And” between values parts separate entries of the source, which are not always exact repeats. Identical values can stand only once.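 Cells were grown in 96-well plates and exposed to each compound for 48 hours at five concentrations; endpoints were interpolated linearly between bracketing concentrations, or set to the highest concentration if not reached. GI50 marks 50% less growth. TGI: total growth inhibition.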

In the first test the test system is A549 NSCLC. In words: NCI anticancer screen, dose series, 48 h.
On to `CCc1c(Oc2ccc(C(C)=O)cc2)c2ccccc2[nH]c1=O`, for which the GI50 was 18.5 µM and the TGI is 59.5 µM.
With `Cc1nc2cccc([N+](=O)[O-])c2c(NCCCN(C)C)c1C`, the TGI was above 100 µM.
In the case of `Cn1c(N2NC(=O)C(N=Nc3ccc(S(N)(=O)=O)cc3)C2=O)nc(-c2ccco2)c(C#N)c1=O` (stereo not drawn), the GI50 is above 50 µM and the TGI is above 50 µM.
In the case of `NCC(=O)NS(=O)(=O)OC[C@H]1O[C@@H](n2cnc3c(N)ncnc32)[C@H](O)[C@@H]1O`, the GI50 is 2.32 µM and the TGI was found to be 5.27 µM.
The matching figures for `Cc1c(C(=O)N/N=C/c2ccc(Cl)cc2)nnn1-c1ccnc2c(C(F)(F)F)cccc12`: 2.1 µM and 4.63 µM.
With `Cc1nn(CN2CCN(C)CC2)c(=S)n1/N=C/c1cccc2ccccc12`, the GI50 is 20.6 µM and the TGI is 46.7 µM.
Taken in the same sequence, the figures for `N#C/C(=C1C=C/C(=N/O)C(Br)=C/1)c1ccccc1` were 3.48 µM and above 100 µM.
Taken in the same sequence, the figures for `CN(C)CCNc1cc(-c2ccccc2)nc2ccccc12` were 4.83 µM and 43.5 µM.
Take `COc1cccc(/C=N/NC(=O)c2ccccc2Nc2ccnc(C(F)(F)F)c2)c1O`: the GI50 was 0.87 µM and the TGI was above 34.1 µM.
With `Cc1ccc(CS/C(=C\c2ccc([N+](=O)[O-])cc2)C(=O)c2ccc(F)cc2)cc1`, the GI50 is 49.1 µM and the TGI is above 100 µM.
For `CC[CH2][Pb]([CH2]CC)([CH2]CC)[O]C(=O)C(F)(F)F`, the GI50 was 0.172 µM and the TGI amounted to 0.563 µM.
The matching figures for `CN1CCN(Cc2ccc(NC(=O)c3cncc(C#Cc4cnc(N)c5ccc(C#N)cc45)c3)cc2C(F)(F)F)CC1`: 0.0353 µM and 0.919 µM.
Turning to `CCOC(=O)CCc1cc(=O)oc2cc(O)cc(O)c12`, the TGI was above 100 µM.
Same read-out and setting: the result for `O=C(O)Cn1ccc(=O)c2ccc([N+](=O)[O-])cc21` reads above 100 µM; that for `COc1cnc2cc(C(=O)O)c3c([N+](=O)[O-])cccc3c2c1`, above 100 µM.
`O=C(CI)NC1Oc2ccccc2-c2oc(=O)c(-c3ccccc3)cc21` (stereo not drawn): the GI50 is 2.36 µM and the TGI turned out to be 6.16 µM.
The matching figures for `COc1ccc2c(c1)c(-c1nc(-c3cn(C)c4ncccc34)cs1)cn2CCCN1CCCCC1`: 1.87 µM and 3.46 µM.
For `O=C1c2cccc(NCCN=Cc3cc(O)ccc3O)c2C(=O)c2c(NCCN=Cc3cc(O)ccc3O)cccc21`, the GI50 is 1.51 µM and the TGI was 4.24 µM.
As to `COc1cccc(-c2cc(=O)c3cc(N(C)C)ccc3[nH]2)c1`, the TGI was above 100 µM.
Consider `CC1=C(CCCNS(C)(=O)=O)C2=C(C)C3(CC3)[C@@](C)(O)C(=O)C2=C1`, for which the GI50 was 1.64 µM and the TGI stood at 24.8 µM.
The matching figures for `COc1cc(/C=C/c2cc(/C=C/c3ccc(O)c(OC)c3)n(-c3ccccc3)n2)ccc1O`: 0.405 µM and 2.16 µM.
The matching figures for `Cc1ccc(-c2c3c([nH]c(=O)c2C#N)-c2cc(F)ccc2OC3)cc1`: 55 µM and above 100 µM.

The test system of a further test is ACHN renal. In words: NCI anticancer screen, dose series, 48 h.
Turning to `CCc1c(Oc2ccc(C(C)=O)cc2)c2ccccc2[nH]c1=O`, the GI50 was 16.7 µM and the TGI worked out at 63.5 µM.
Compound `Cc1nc2cccc([N+](=O)[O-])c2c(NCCCN(C)C)c1C` yielded a TGI above 100 µM.
Take `Cn1c(N2NC(=O)C(N=Nc3ccc(S(N)(=O)=O)cc3)C2=O)nc(-c2ccco2)c(C#N)c1=O` (stereo not drawn): the GI50 was 15.6 µM and the TGI was above 50 µM.
Taken in the same sequence, the figures for `NCC(=O)NS(=O)(=O)OC[C@H]1O[C@@H](n2cnc3c(N)ncnc32)[C@H](O)[C@@H]1O` were 2.89 µM and 8.37 µM.
The matching figures for `Cc1c(C(=O)N/N=C/c2ccc(Cl)cc2)nnn1-c1ccnc2c(C(F)(F)F)cccc12`: 2.02 µM and 3.95 µM.
The matching figures for `Cc1nn(CN2CCN(C)CC2)c(=S)n1/N=C/c1cccc2ccccc12`: 20.1 µM and 38.4 µM.
For the compound `N#C/C(=C1C=C/C(=N/O)C(Br)=C/1)c1ccccc1`, the GI50 was 1.89 µM and the TGI was determined as 14.7 µM.
The matching figures for `CN(C)CCNc1cc(-c2ccccc2)nc2ccccc12`: 4.42 µM and 38.9 µM.
Consider `COc1cccc(/C=N/NC(=O)c2ccccc2Nc2ccnc(C(F)(F)F)c2)c1O`, for which the GI50 was 0.279 µM and the TGI is above 100 µM.
Taken in the same sequence, the figures for `Cc1ccc(CS/C(=C\c2ccc([N+](=O)[O-])cc2)C(=O)c2ccc(F)cc2)cc1` were 1.73 µM and 3.1 µM.
Regarding `CC[CH2][Pb]([CH2]CC)([CH2]CC)[O]C(=O)C(F)(F)F`, the GI50 was 0.149 µM and the TGI amounted to 0.458 µM.
The matching figures for `CN1CCN(Cc2ccc(NC(=O)c3cncc(C#Cc4cnc(N)c5ccc(C#N)cc45)c3)cc2C(F)(F)F)CC1`: 0.0237 µM and 0.526 µM.
`CCOC(=O)CCc1cc(=O)oc2cc(O)cc(O)c12` showed a TGI above 100 µM.
Compound `O=C(O)Cn1ccc(=O)c2ccc([N+](=O)[O-])cc21` gave a TGI above 100 µM.
The same measure, in the same setting: to `COc1cnc2cc(C(=O)O)c3c([N+](=O)[O-])cccc3c2c1` belongs above 100 µM.
Regarding `COc1ccc2c(c1)c(-c1nc(-c3cn(C)c4ncccc34)cs1)cn2CCCN1CCCCC1`, the GI50 was 1.69 µM and the TGI was determined as 3.06 µM.
For the compound `O=C1c2cccc(NCCN=Cc3cc(O)ccc3O)c2C(=O)c2c(NCCN=Cc3cc(O)ccc3O)cccc21`, the GI50 is 2.05 µM and the TGI came to 8.93 µM.
Consider `COc1cccc(-c2cc(=O)c3cc(N(C)C)ccc3[nH]2)c1`, for which the GI50 was 0.0892 µM and 0.011 µM; the TGI was > 100 µM and 51.9 µM.
As for `CC1=C(CCCNS(C)(=O)=O)C2=C(C)C3(CC3)[C@@](C)(O)C(=O)C2=C1`, the GI50 was 2.14 µM and the TGI is 7.58 µM.
Regarding `Cc1ccc(-c2c3c([nH]c(=O)c2C#N)-c2cc(F)ccc2OC3)cc1`, the GI50 is above 100 µM and the TGI is above 100 µM.

Another test concerns CAKI-1 renal. Description: NCI anticancer screen, dose series, 48 h.
For `CCc1c(Oc2ccc(C(C)=O)cc2)c2ccccc2[nH]c1=O`, the GI50 is 15.8 µM and the TGI came out at 53.3 µM.
`Cc1nc2cccc([N+](=O)[O-])c2c(NCCCN(C)C)c1C` had a TGI above 100 µM.
Take `Cn1c(N2NC(=O)C(N=Nc3ccc(S(N)(=O)=O)cc3)C2=O)nc(-c2ccco2)c(C#N)c1=O` (stereo not drawn): the GI50 was 11.9 µM and the TGI is above 50 µM.
As to `Cc1c(C(=O)N/N=C/c2ccc(Cl)cc2)nnn1-c1ccnc2c(C(F)(F)F)cccc12`, the GI50 was 17.6 µM and the TGI stood at 45.1 µM.
On to `Cc1nn(CN2CCN(C)CC2)c(=S)n1/N=C/c1cccc2ccccc12`, for which the GI50 is 28.2 µM and the TGI turned out to be 73.5 µM.
On to `N#C/C(=C1C=C/C(=N/O)C(Br)=C/1)c1ccccc1`, for which the GI50 is 0.7 µM and the TGI was 12.7 µM.
With `CN(C)CCNc1cc(-c2ccccc2)nc2ccccc12`, the GI50 was 6.56 µM and the TGI stood at 40.9 µM.
Taken in the same sequence, the figures for `COc1cccc(/C=N/NC(=O)c2ccccc2Nc2ccnc(C(F)(F)F)c2)c1O` were 0.257 µM and 9.72 µM.
In the case of `CC[CH2][Pb]([CH2]CC)([CH2]CC)[O]C(=O)C(F)(F)F`, the GI50 was 0.16 µM and the TGI was determined as 0.501 µM.
For `CN1CCN(Cc2ccc(NC(=O)c3cncc(C#Cc4cnc(N)c5ccc(C#N)cc45)c3)cc2C(F)(F)F)CC1`, the GI50 is 0.0175 µM and the TGI worked out at 0.206 µM.
In the case of `CCOC(=O)CCc1cc(=O)oc2cc(O)cc(O)c12`, the TGI was above 100 µM.
Still for that read-out and setting: the result for `O=C(O)Cn1ccc(=O)c2ccc([N+](=O)[O-])cc21` reads above 100 µM; that for `COc1cnc2cc(C(=O)O)c3c([N+](=O)[O-])cccc3c2c1`, above 100 µM.
Consider `O=C(CI)NC1Oc2ccccc2-c2oc(=O)c(-c3ccccc3)cc21` (stereo not drawn), for which the GI50 was 1.67 µM and the TGI is 3.05 µM.
Take `COc1cc(/C=C/c2cc(/C=C/c3ccc(O)c(OC)c3)n(-c3ccccc3)n2)ccc1O`: the GI50 was 0.33 µM and the TGI is 7.26 µM.
For the compound `Cc1ccc(-c2c3c([nH]c(=O)c2C#N)-c2cc(F)ccc2OC3)cc1`, the GI50 was 82.1 µM and the TGI was above 100 µM.

A further test relates to OVCAR-8 ovarian. In words: NCI anticancer screen, dose series, 48 h.
Take `CCc1c(Oc2ccc(C(C)=O)cc2)c2ccccc2[nH]c1=O`: the GI50 was 19.1 µM and the TGI came out at 53.4 µM.
In turn, `Cc1nc2cccc([N+](=O)[O-])c2c(NCCCN(C)C)c1C` came in with a TGI above 54.7 µM.
For `Cn1c(N2NC(=O)C(N=Nc3ccc(S(N)(=O)=O)cc3)C2=O)nc(-c2ccco2)c(C#N)c1=O` (stereo not drawn), the GI50 was above 50 µM and the TGI was above 50 µM.
Consider `NCC(=O)NS(=O)(=O)OC[C@H]1O[C@@H](n2cnc3c(N)ncnc32)[C@H](O)[C@@H]1O`, for which the GI50 was 2.48 µM and the TGI worked out at 7.59 µM.
On to `Cc1c(C(=O)N/N=C/c2ccc(Cl)cc2)nnn1-c1ccnc2c(C(F)(F)F)cccc12`, for which the GI50 is 2.25 µM and the TGI was 4.71 µM.
In the case of `Cc1nn(CN2CCN(C)CC2)c(=S)n1/N=C/c1cccc2ccccc12`, the GI50 is 19.1 µM and the TGI turned out to be 37 µM.
The matching figures for `N#C/C(=C1C=C/C(=N/O)C(Br)=C/1)c1ccccc1`: 2.61 µM and 8.41 µM.
The matching figures for `CN(C)CCNc1cc(-c2ccccc2)nc2ccccc12`: 4.1 µM and 22 µM.
Taken in the same sequence, the figures for `COc1cccc(/C=N/NC(=O)c2ccccc2Nc2ccnc(C(F)(F)F)c2)c1O` were 0.319 µM and above 38 µM.
For the compound `Cc1ccc(CS/C(=C\c2ccc([N+](=O)[O-])cc2)C(=O)c2ccc(F)cc2)cc1`, the GI50 is 3.42 µM and the TGI came to 19.4 µM.
The matching figures for `CN1CCN(Cc2ccc(NC(=O)c3cncc(C#Cc4cnc(N)c5ccc(C#N)cc45)c3)cc2C(F)(F)F)CC1`: 0.141 µM and 1.32 µM.
Regarding `CCOC(=O)CCc1cc(=O)oc2cc(O)cc(O)c12`, the TGI was above 100 µM.
Turning to `O=C(O)Cn1ccc(=O)c2ccc([N+](=O)[O-])cc21`, the TGI is above 100 µM.
Same read-out and setting: to `COc1cnc2cc(C(=O)O)c3c([N+](=O)[O-])cccc3c2c1` belongs above 100 µM.
For `O=C(CI)NC1Oc2ccccc2-c2oc(=O)c(-c3ccccc3)cc21` (stereo not drawn), the GI50 is 1.79 µM and the TGI worked out at 4.47 µM.
Turning to `O=C1c2cccc(NCCN=Cc3cc(O)ccc3O)c2C(=O)c2c(NCCN=Cc3cc(O)ccc3O)cccc21`, the GI50 is 0.884 µM and the TGI came to 3.21 µM.
As to `COc1cccc(-c2cc(=O)c3cc(N(C)C)ccc3[nH]2)c1`, the TGI is 94.6 nM [middle of 4 runs].
Take `CC1=C(CCCNS(C)(=O)=O)C2=C(C)C3(CC3)[C@@](C)(O)C(=O)C2=C1`: the GI50 was 0.518 µM and the TGI is 5.36 µM.
As to `COc1cc(/C=C/c2cc(/C=C/c3ccc(O)c(OC)c3)n(-c3ccccc3)n2)ccc1O`, the GI50 is 0.466 µM and the TGI came out at 3.55 µM.
The matching figures for `Cc1ccc(-c2c3c([nH]c(=O)c2C#N)-c2cc(F)ccc2OC3)cc1`: above 100 µM and above 100 µM.
